Assay [1] has as its target T1, 5-Lipoxygenase (Rattus norvegicus, UniProt P12527).
T1 sequence (P12527 1-673): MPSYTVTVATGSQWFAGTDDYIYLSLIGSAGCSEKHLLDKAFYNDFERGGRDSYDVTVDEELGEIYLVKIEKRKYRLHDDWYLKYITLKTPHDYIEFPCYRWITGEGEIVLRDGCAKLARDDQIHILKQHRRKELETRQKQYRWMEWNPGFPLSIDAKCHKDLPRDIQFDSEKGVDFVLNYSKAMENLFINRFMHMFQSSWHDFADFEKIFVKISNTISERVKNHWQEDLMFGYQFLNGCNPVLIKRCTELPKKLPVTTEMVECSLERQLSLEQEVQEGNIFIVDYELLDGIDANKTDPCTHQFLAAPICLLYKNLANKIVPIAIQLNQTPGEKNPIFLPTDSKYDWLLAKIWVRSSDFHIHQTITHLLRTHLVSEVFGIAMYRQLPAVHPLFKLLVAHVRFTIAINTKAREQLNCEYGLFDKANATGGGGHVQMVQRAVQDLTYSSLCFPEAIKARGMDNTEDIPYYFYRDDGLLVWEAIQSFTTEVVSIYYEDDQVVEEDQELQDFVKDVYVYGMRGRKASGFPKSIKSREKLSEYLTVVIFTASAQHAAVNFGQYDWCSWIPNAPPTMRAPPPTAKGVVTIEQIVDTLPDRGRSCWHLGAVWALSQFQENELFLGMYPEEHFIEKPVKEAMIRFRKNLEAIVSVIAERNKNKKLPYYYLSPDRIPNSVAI
The experiment in a line: ARBL: 5-lipoxygenase (LTB4) in RBL-1 cells. The note with it: Table 4; ARBL/ARBC IC50 (μM) or % inhibition at 10 μM; RBL-1 cells, A23187. On the set-up: endogenous in cells; host or cells: RBL-1 (rat basophilic leukemia). In kind it is cell-based. On the procedure:
The testing methods used are described as follows:
The rat basophilic leukemia cell line (RBL-1) was obtained from the American Type Culture Collection (Rockville, Md.).
Radioimmunoassay (RIA) kits of LTB4 and PGF2α were obtained from Arnersham (Arlington Heights, IL) and Seragen (Boston, Mass.), respectively.
All tissue culture media were obtained from GIBCO (Grand Island, N.Y.).
RBL-1 cells are grown in suspension culture in Eagle's minimum essential medium supplemented with 12% fetal bovine serum at 37° C. in an incubator supplied with air-5% carbon dioxide. Cells are harvested by centrifugation. They are washed with cold phosphate-buffered saline, pH 7.4 (PBS; NaCl, 7.1 g; Na2 HPO4, 1.15 g; KH2 PO4, 0.2 g; and KCl, 0.2 g/L). Cells are finally suspended in PBS containing 1.0 mM calcium at a density of 2×10^6 cells/mL. Cells are incubated with and without test agent (in DMSO) (1% DMSO is without effect on arachidonic acid metabolism) for 10 minutes at room temperature. Calcium ionophore A23187 (5 μM) is added and cells are incubated for 7 minutes at 37° C. The reaction is stopped by chilling the tubes on ice for 10 minutes. Cells are separated by centrifugation and the supernatant is stored at -20° C. Aliquots (100 μL) are analyzed for LTB4 and PGF2α using radioimmunoassay kits as provided by the supplier.

The target in assay [2] is T1, 5-Lipoxygenase. The experiment in a line: 5-lipoxygenase inhibition assay (20,000 xg supernatant of RBL cells). In kind it is biochemical. The arrangement: activity contained in the 20,000 xg supernatant from cultured rat basophilic leukemia (RBL) cells; endogenous in cells; host or cells: RBL (rat basophilic leukemia) cells, 20,000 xg supernatant. The note with it: Table 4, read-out: 5-LO % Inhibition at 30 μM. On the procedure: PROTOCOL FOR 5-LIPOXYGENASE INHIBITION ASSAY
Incubations contained 5% (v/v) RBL 20,000 xg supernatant in assay buffer (10 mM BES, 10 mM PIPES, 1 mM EDTA, 0.75 mM CaC12, 1 mMATP, 100 mMNaCl, pH 6.8). DMSO vehicle (2% v/v) with and without inhibitors is preincubated with the enzyme for 20 minutes at 37° C. before initiating the 5-lipoxygenase catalyzed reaction by adding […] [^14 C]arachidonic acid (55.8 mCi/mmol, New England Nuclear, Boston, Mass.) dissolved in 5 μL 0,028% (v/v) aqueous NH4 OH. After 20 minutes of additional incubation at 37° C., reactions are terminated by the addition of three volumes of methanol containing 100 μg triphenylphosphine. Samples are then analyzed by HPLC with radiometric detection for 5-1ipoxygenase reaction products.
All treatments are evaluated in duplicate and percent inhibition is computed by comparing the products formed in treatment incubations to the mean product formation in the vehicle control group.

Assay [3] deals with human neutrophil adhesion to TNFα, IL-1α, and LPS stimulated human umbilical vein endothelial cells. The experiment in a line: Modified method: inhibition of human neutrophil adhesion to TNF-stimulated HUVEC (calcein fluorescence). It counts as cell-based. On the set-up: inhibition: dose or concentration left out as unconfirmed. The note with it: for inhibition at 33.3 µM: Table 2, tested at a concentration of 33.3 μM (footnote a); for inhibition: Table 3. From the text:
MODIFIED METHOD FOR DETERMINING THE INHIBITION OF HUMAN NEUTROPHIL ADHESION TO TNFα, IL-1α, AND LPS STIMULATED HUMAN UMBILICAL VEIN ENDOTHELIAL CELLS BY 3-ALKOXY-BENZO[b]THIOPHENE-2-CARBOXAMIDES
The previous assay using ^51 Cr labeled human neutrophils has been modified. The neutrophils are now labeled with the fluorescent dye calcein. The current method allows for quantification of neutrophil adherence by fluorescence spectroscopy.
Second passage HUVEC (Clonetics Corporation, San Diego, Calif., CC-2617) were seeded into Corning (Corning glass works, Corning, N.Y.) 96-well cell culture plates at approximately 5×10^3 cells/well and grown to confluency in supplemented endothelial basal medium (EBM, MCDB-131, Clonetics, 10 ng/mL EGF, 1 μg/mL hydrocortisone, 0.4% bovine brain extract, 5% Fetal Bovine Serum). One day prior to running the assay, typically 3 days postseeding, the cultures were refed with 0.2 mL/well supplemented EBM (S-EBM).
Preparation of Test Compounds
Test compounds were prepared as 10 mL stock solutions at a concentration of 1.0 mM. The compounds were initially solubilized in 0.1 mL DMSO followed by the addition of 9.9 mL S-EBM. The drug preparations were then diluted in one step to a concentration of 66.6 μM. Solubilizations and dilutions were performed in polystyrene containers.
Isolation of Human Neutrophils
Human neutrophils were isolated from anticoagulant-treated venous blood obtained from healthy volunteers according to the method of Ferrante and Thong. The cell preparations consisted of greater than 98% neutrophils.
Recombinant human tumor necrosis factor-α (TNF, Genzyme, Boston, Mass., code TNF-H) was prepared at 400 U/mL in S-EBM. Stock TNF was prepared to 20,000 U/mL in Delbecco's phosphate-buffered saline (PBS, Gibco, Grand Island N.Y.) plus 0.1% BSA and stored at -70° C. […] This was accomplished by adding 0.1 mL of 400 U/mL TNF and 0.1 mL 66.6 μM test compound. These additions were done slowly as to not disrupt the HUVEC monolayer. Each compound was tested in six wells. Unstimulated (vehicle control) and TNF-stimulated without test compound treatments were also run in each plate.
One hour prior to adding the neutrophils to the HI/VEC, neutrophils (5×10^6 /mL) were labeled for 30 minutes at 37° C. with 5 μM calcine-AM (Molecular Probes, Eugene, OR) in Hanks' balanced salt solution plus 0.45% BSA. Stock calcein was prepared to 5 mM in anhydrous DMSO and stored desiccated at -20° C. At the end of the incubation the cells were washed two times in cold HBSS and resuspended to a final concentration of 1×10^6 cells/mL in unsupplemented EBM.
Addition of Neutrophils to HUVEC
At the end of the 4-hour stimulation and immediately prior to the addition of the neutrophils to the HUVEC monolayer, the plates were washed with 0.2 mL warm unsupplemented EBM to remove TNF and drug. Neutrophils (1×10^5 cells) were slowly added to each of the treated wells and incubated for 30 minutes at 37° C. At the end of the incubation the plates were washed two times with 0.2 mL warm unsupplemented EBM followed by a final addition of 0.1 mL for plate scanning.
Determination of Relative Fluorescence
The relative fluorescence was determined using a Millipore Cytofluor 2300 system (excitation=480, emission=530, sensitivity=4).
Results were expressed as means of percent inhibition of TNF-stimulated adherence, using the following equation. [formula] […] Linear regression analysis of the means of the inhibition values were used to determine the IC50.
The compounds of Examples 36-44 in Table 2 and 45-53 in Table 3 were tested according to the modified method.

Molecules are shown by their SMILES.

The IC50 is the midpoint of a concentration-inhibition curve. What is called inhibition is the percentage by which the read-out fell short of the control.

Consider `COc1ccc2sc(C(N)=O)c(OC(C)C)c2c1` [Example 1, 5-methoxy-3-(1-methylethoxy)benzo[b]thiophene-2-carboxamide], for which it took 36 µM to reach half-maximal inhibition in assay [1] (IC50). Also, the inhibition at 30 µM in assay [2] was 13%.
Turning to `CCOC(=O)c1ccc(NC(=O)c2sc3ccc(OC)cc3c2OC(C)C)nc1` [Example 36, Ethyl 6-[[[5-methoxy-3-(1-methylethoxy)benzo[b]thien-2-yl]carbonyl]amino]-3-pyridinecarboxylate], the inhibition at 33.3 µM in assay [3] was 26%.
Still for that read-out and setting: the value for `COc1ccc2sc(C(=O)Nc3ccc(C(=O)O)cn3)c(OC(C)C)c2c1` [Example 37] was 8%; that for `CCOC(=O)Cc1csc(NC(=O)c2sc3ccc(OC)cc3c2OC(C)C)n1` [Example 38, Ethyl 2-[[[5-methoxy-3-(1-methylethoxy)benzo[b]thien-2-yl]carbonyl]amino]-4-thiazoleacetate] was 72%.
Same read-out and setting: the value for `COc1ccc2sc(C(=O)Nc3nc(CC(=O)O)cs3)c(OC(C)C)c2c1` [Example 39, 2-[[[5-Methoxy-3-(1-methylethoxy)benzo[b]thien-2-yl]carbonyl]amino]-4-thiazoleacetic acid] was 26%.
Same read-out and setting: in the case of `COc1ccc2sc(C(=O)Nc3ccc(C(=O)O)cc3OC)c(OC(C)C)c2c1` [Example 40, 3-Methoxy-4-[[[5-methoxy-3-(1-methylethoxy)benzo [b]thien-2-yl]carbonyl]amino]benzoic acid] it was 34%.
`COc1ccc2sc(C(=O)Nc3ccc(C(=O)O)c(O)c3)c(OC(C)C)c2c1` [Example 42, 2-Hydroxy-4-[[[5-methoxy-3-(1-methylethoxy)benzo[b]thien-2-yl]carbonyl]arnino]benzoic acid]: in assay [3] (Table 2, footnote c not defined), the IC50 was 34 µM.
As for `CNC(=O)c1c(OC(C)C)c2cc(OC)ccc2[s+]1[O-]` (centres unmarked) [Example 46, 5-Methoxy-N-methyl-3-(1-methylethoxy)benzo[b]thiophene-2-carboxamide-1-oxide], the inhibition in assay [3] is 43%.
Regarding `COc1ccc2c(c1)c(OC(C)C)c(C(=O)NCc1ccccc1)[s+]2[O-]` (centres unmarked) [Example 47, 5-Methoxy-3-(1-methylethoxy)-N-(phenylmethyl)benzo[b]thiophene-2-carboxamide-1-oxide], in assay [3], the inhibition was 15%.
Same read-out and setting: in the case of `CC(C)Oc1c(C(N)=O)[s+]([O-])c2ccc(O)cc12` (centres unmarked) [Example 49, 5-Hydroxy-3-(1-methylethoxy)benzo[b]thiophene-2-carboxaraide-1-oxide] it was 79%.
Same read-out and setting: in the case of `Cc1ccc2c(c1)c(OC(C)C)c(C(N)=O)[s+]2[O-]` (centres unmarked) [Example 50, 5-Methyl-3-(1-methylethoxy)benzo[b]thiophene-2-carboxaraide-1-oxide] it was 69%.
The same measure, in the same setting: the value for `COc1ccc2c(c1)c(Oc1ccccc1)c(C(N)=O)[s+]2[O-]` (centres unmarked) [Example 51, 5-Methoxy-3-phenoxybenzo[b]thiophene-2-carboxamide-1-oxide] was 15%.
Take `COc1ccc2c(c1)c(OC)c(C(N)=O)[s+]2[O-]` (centres unmarked) [Example 53, 3,5-Dimethoxybenzo[b]thiophene-2-carboxamide-1-oxide]: in assay [3], the inhibition is 40%.

The record behind these values is patent US5356926A, “3-alkyloxy-, aryloxy-, or arylalkyloxy-benzo [β]thiophene-2-carboxamides as inhibitors of cell adhesion” (Warner-Lambert Company, priority 1993, dated 1994).
